One test deals with Mu-type opioid receptor (Rattus norvegicus, UniProt P33535). Briefly: biochemical. Format: cell-based, CHO.
For test [1], the target named is T1, Delta-type opioid receptor (Rattus norvegicus, UniProt P33533). As to the kind of experiment: Inhibitory activity against forskolin-stimulated cAMP production in chinese hamster ovary cells expressing Opioid receptor delta 1. Format: functional, cell-based, CHO. In general terms: Cyclic AMP is a second messenger, typically raised through Gs and lowered through Gi signalling.

Test [2] addresses Kappa-type opioid receptor (Rattus norvegicus, UniProt P34975). Briefly: biochemical. In kind it is cell-based, CHO.
Test [3] addresses T1, Delta-type opioid receptor. As to the kind of experiment: biochemical. Format: cell-based, CHO.
Description: Binding affinity against rat Opioid receptor delta 1 expressed in CHO cells determined by competitive inhibition of 1 nM [3H]DPDPE.

Starred links: 1 amine or outer side, 2 acyl side, 3 side chain; linkers in the order of their positions; H or OH if unused. Non-standard residues stand in square brackets, D forms with d. Residues, ends and D or L forms follow the SMILES beside them. X1 = O=C([C@@]1(N[*:1])CCCC[C@@H]1O)[*:2]; X2 = O=C([C@@]1(N[*:1])CCCC[C@H]1O)[*:2]; X3 = O=C([C@@]1(N[*:1])CCC[C@@H]1O)[*:2]; X4 = O=C([C@]1(N[*:1])CCC[C@H]1O)[*:2] Bounds are passed on as bounds.

Usually IC50 stands for the concentration that gives 50% inhibition.

Sequence of Mu-type opioid receptor (P33535 whole entry): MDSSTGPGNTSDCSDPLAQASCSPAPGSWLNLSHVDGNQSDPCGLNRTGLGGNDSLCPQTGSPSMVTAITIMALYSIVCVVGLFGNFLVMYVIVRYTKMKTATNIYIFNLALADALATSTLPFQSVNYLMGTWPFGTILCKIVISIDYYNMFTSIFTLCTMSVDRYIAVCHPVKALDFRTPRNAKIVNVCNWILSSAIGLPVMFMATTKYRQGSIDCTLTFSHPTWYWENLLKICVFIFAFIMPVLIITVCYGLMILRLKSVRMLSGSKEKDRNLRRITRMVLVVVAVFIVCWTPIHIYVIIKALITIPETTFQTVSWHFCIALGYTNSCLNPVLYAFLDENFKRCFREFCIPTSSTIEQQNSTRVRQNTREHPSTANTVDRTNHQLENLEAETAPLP
Sequence of Kappa-type opioid receptor (P34975 whole entry): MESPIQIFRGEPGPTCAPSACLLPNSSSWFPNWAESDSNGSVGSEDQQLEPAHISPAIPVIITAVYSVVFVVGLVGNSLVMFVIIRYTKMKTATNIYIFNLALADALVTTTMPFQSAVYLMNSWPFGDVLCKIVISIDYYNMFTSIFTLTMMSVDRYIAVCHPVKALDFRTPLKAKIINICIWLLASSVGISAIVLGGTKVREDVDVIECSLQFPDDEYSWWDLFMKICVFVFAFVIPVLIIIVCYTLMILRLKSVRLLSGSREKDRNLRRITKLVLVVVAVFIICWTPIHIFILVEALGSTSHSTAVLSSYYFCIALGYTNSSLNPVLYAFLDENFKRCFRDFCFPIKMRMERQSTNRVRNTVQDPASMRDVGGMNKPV
T1 sequence (P33533 whole entry): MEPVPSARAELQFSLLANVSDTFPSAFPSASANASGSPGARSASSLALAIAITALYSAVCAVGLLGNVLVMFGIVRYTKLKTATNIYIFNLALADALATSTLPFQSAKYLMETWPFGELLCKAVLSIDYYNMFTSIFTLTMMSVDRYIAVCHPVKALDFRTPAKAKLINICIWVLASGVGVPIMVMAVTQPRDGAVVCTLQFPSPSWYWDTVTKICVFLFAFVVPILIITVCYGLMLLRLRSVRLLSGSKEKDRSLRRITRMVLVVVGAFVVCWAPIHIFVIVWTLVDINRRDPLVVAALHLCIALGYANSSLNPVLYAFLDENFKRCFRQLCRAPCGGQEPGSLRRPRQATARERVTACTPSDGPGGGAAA

In the case of `CC(C)C[C@H](NC(=O)[C@H](Cc1ccccc1)NC(=O)CNC(=O)[C@]1(NC(=O)[C@@H](N)Cc2ccc(O)cc2)CCC[C@H]1O)C(=O)O` (H-Y[X4]GFL-OH), the half-maximal inhibitory concentration (IC50) on Mu-type opioid receptor is 320 nM; in test [1], 10 nM; in test [2] it was greater than 10000 nM.
As to `CC(C)C[C@H](NC(=O)[C@H](Cc1ccccc1)NC(=O)CNC(=O)C(C)(C)NC(=O)[C@@H](N)Cc1ccc(O)cc1)C(=O)O` (single isomer, unassigned), the half-inhibitory concentration (IC50) is 50 nM in test [3], 158 nM on Mu-type opioid receptor, 140 nM in test [1] and greater than 10000 nM in test [2].
The matching figures for `CC(C)C[C@H](NC(=O)[C@H](Cc1ccccc1)NC(=O)CNC(=O)[C@@]1(NC(=O)[C@@H](N)Cc2ccc(O)cc2)CCCC[C@@H]1O)C(=O)O` (H-Y[X1]GFL-OH): 0.01 nM, 0.25 nM, 0.005 nM and 6310 nM.
`CC(C)C[C@@H](NC(=O)[C@@H](Cc1ccccc1)NC(=O)CNC(=O)[C@](C)(CO)NC(=O)[C@H](N)Cc1ccc(O)cc1)C(=O)O`: the half-inhibitory concentration (IC50) in test [3] (cho) was 2500 nM; at Mu-type opioid receptor (cho) it was greater than 10000 nM; in test [1] (cho), 5000 nM; in test [2] (cho), greater than 10000 nM.
On to `CC(C)C[C@H](NC(=O)[C@H](Cc1ccccc1)NC(=O)CNC(=O)[C@@]1(NC(=O)[C@@H](N)Cc2ccc(O)cc2)CCCC[C@H]1O)C(=O)O` (H-Y[X2]GFL-OH), for which the concentration for half-maximal inhibition (IC50) is 1 nM in test [3], 50 nM at Mu-type opioid receptor, 2 nM in test [1] and greater than 10000 nM in test [2].
Take `CC(C)C[C@H](NC(=O)[C@H](Cc1ccccc1)NC(=O)CNC(=O)[C@@]1(NC(=O)[C@@H](N)Cc2ccc(O)cc2)CCC[C@@H]1O)C(=O)O` (H-Y[X3]GFL-OH): the IC50 in test [3] is 0.04 nM; against Mu-type opioid receptor, 2.5 nM; in test [1], 0.01 nM; in test [2] it was greater than 10000 nM.
Regarding `CC(C)C[C@@H](NC(=O)[C@@H](Cc1ccccc1)NC(=O)CNC(=O)[C@@](C)(CO)NC(=O)[C@H](N)Cc1ccc(O)cc1)C(=O)O`, the IC50 in test [3] (cho) was 0.4 nM; on Mu-type opioid receptor (cho) it was 6.3 nM; in test [1] (cho) it was 0.071 nM; in test [2] (cho) it was greater than 10000 nM.
